Read-outs that look alike come from different tables or passages of the source.
Tests used:
[1] = system: human PBMC; assay: TGF-β1 accumulation by human PBMC (antibody staining and ELISA); format: cell-based; conditions: inhibitor 3 μM; sialidases 200 ng/ml; 5 days; ELISA
Experimental: To determine if sialidases might cause cells to accumulate intracellular and extracellular TGF-β1, human PBMC were cultured with sialidases in 96 well plates at 5×10^5 cells/ml and 200 μl/well in FibroLife serum-free medium for five days, then air dried. The levels of TGF-β1 in or on the cells was detected by staining with an antibody against TGF-β1. Photomicrographs were analyzed by counting stained cells (FIG. 7B) and quantifying staining intensity using ImageJ (FIG. 7C).
PBMC were cultured in 96 well plates at 5×10^5 cells/ml and 200 μl/well in FibroLife serum-free medium. When the cells were plated, recombinant human sialidases were added to final concentrations of 200 ng/ml, and DANA or oseltamivir were added to 3 μM. After 5 days, culture supernatants were analyzed using a TGF-β1 ELISA kit (R&D Systems).

[2] = system: mice with bleomycin-induced fibrosis; assay: mouse bleomycin model of pulmonary fibrosis; format: in vivo; conditions: day 21
Experimental: The successful aspiration of bleomycin into the lungs was confirmed by listening for a crackling noise heard after the aspiration. Mice were weighed daily, and euthanized using CO2 following NIH guidelines at day 21 after bleomycin aspiration. The experiment was performed in accordance with the recommendations in the Guide for the Care and Use of Laboratory Animals of the National Institutes of Health. The Texas A&M University Animal Use and Care Committee approved the protocol.
The BALs were clarified by centrifugation at 500×g for 10 minutes, and the supernatants were transferred to Eppendorf tubes. The supernatants were flash frozen with liquid nitrogen, and stored at −20° C. until further use.
After collection of BAL fluid, mouse lungs were inflated with prewarmed Optimal Cutting Temperature (OCT) embedding medium (VWR, Radnor, PA) and then embedded in OCT, frozen on dry ice, and then stored at −80° C. 6-micron cryosections of mouse lungs were mounted on Superfrost Plus® microscope slides (VWR). The sections on the slides were allowed to air-dry for 24-48 hours. The slides were then fixed in acetone at room temperature for 20 minutes and air-dried for 10 minutes.
Then, starting 24 hours after bleomycin had been administered, the mice were given daily intraperitoneal injections of 10 mg/kg DANA (Calbiochem) in PBS or 10 mg/kg oseltamivir (Sigma) in PBS. Both inhibitors are quite polar and thus probably remain in the extracellular space. Assuming 2 ml of extracellular space in a 20 gram mouse, these doses would then be ˜3 μM. At day 21, mice were sacrificed and BAL and cryosections of lungs were obtained as described for Example 3. The experiment was performed in accordance with the recommendations in the Guide for the Care and Use of Laboratory Animals of the National Institutes of Health. The Texas A&M University Animal Use and Care Committee approved the protocol.
Treatment of mice with oropharyngeal bleomycin results in an initial inflammation, and then a fibrosis that has begun by day 10 after bleomycin treatment. To determine if sialidase inhibitors decrease fibrosis when treatment starts after the initial inflammation stage and when fibrosis is present, mice were treated with oropharyngeal bleomycin to induce symptoms of pulmonary fibrosis as described above. Then, starting 10 days after bleomycin had been administered, the mice were given daily intraperitoneal injections of 10 mg/kg DANA (Calbiochem) in PBS or 10 mg/kg oseltamivir (Sigma) in PBS. At day 21, mice were sacrificed and BAL and cryosections of lungs were obtained as described above. The experiment was performed in accordance with the recommendations in the Guide for the Care and Use of Laboratory Animals of the National Institutes of Health. The Texas A&M University Animal Use and Care Committee approved the protocol.
To determine if sialidase inhibitors could also reduce TGF-β1 levels in mice, mice were treated with bleomycin or saline, then injected daily with saline, DANA or oseltamivir starting at day 10 after bleomycin treatment, as described in Example 9. The mice were euthanized at day 21 and sections of lung tissue were stained for TGF-β1. Results are presented in FIG. 11A and are representative of results for three mice per group.

[3] = system: human sialidases; conditions: all four human sialidases; carboxylate form; cited from earlier work
[4] = system: murine sialidases; conditions: mice, cited from earlier work
[5] = target: LPS-induced mouse macrophage sialidase activity; conditions: cited from earlier work
[6] = 10 mg/kg daily i.p. starting at day 10

## CCC(CC)[C@H](NC(C)=O)[C@@H]1[C@H](O)[C@@H](C(=O)O)C[C@H]1N=C(N)N [Compound 58, (1S,2S,3S,4R)-3-[(1S)-1-acetamido-2-ethyl-butyl]-4-(diaminomethylideneamino)-2-hydroxy-cyclopentane-1-carboxylic acid]
[1]
  effects of NEU2 and NEU3 on extracellular TGF-β1: blocked
[2]; 10 mg/kg daily i.p. starting 24 hours after bleomycin
  collagen deposition in the lungs (Sirius red): reduced
[2]; [6]
  collagen deposition in the lungs (Sirius red): reduced
  total protein in BAL: attenuated
[2]; daily injection starting at day 10
  TGF-β1 levels in lung tissue (staining): reduced TGF-β1 levels
[3]
  inhibitor of human sialidases: poor inhibitor
[4]; listed as Oseltamivir
  inhibitor of murine sialidases: potent sialidase inhibitor in mice
[4]; listed as oseltamivir
  inhibitor of murine sialidases: potent inhibitor
[5]
  IC50: 1000 nM
